{
  "source": "patent US6599705B2",
  "about": "“Regulation of fungal gene expression” (priority 1997, dated 2003)",
  "key": {"S. cerevisiae": {"system": "S. cerevisiae", "test": "dig assay (nonfilamentous agar invasion) on YPD gradient plates", "type": "cell-based", "details": "YPD agar with fluconazole gradient, two days, washed with water (FIG. 12)", "from_the_text": "Another example of a screen is based on the observation that yeast from haploid S. cerevisiae invade agar when grown on rich (YPD) medium without forming pseudohyphae. This nonfilamentous invasion behavior has been termed “digging,” and the assay used to detect this behavior has been termed the “dig assay.” Roberts and Fink, supra. […] Mutant strains defective for digging are referred to as “dig minus,” or “dig−.” The correlation of pseudohyphal invasion and behavior in the dig assay is an essential aspect of this screen. The dig assay is comparatively easy to perform relative to pseudohyphal invasion assays, and, as it occurs in haploid cells, is more amenable to genetic approaches that rely upon recessive mutations.\nAn example of the dig assay is given below. To test whether a chemical compound would affect the nonfilamentous agar invasion behavior of nonmutant S. cerevisiae or C. albicans at concentrations much lower than the lowest growth inhibitory concentration, these fungi were spotted onto agar plates containing rich medium (YPD) and a gradient of the antifungal fluconazole. The plates were then incubated for two days at optimum growth temperatures and washed with water. […] This assay can be performed on other dimorphic fungi, such as U. maydis, as well as on other fungi. […]"}, "C. albicans": {"system": "C. albicans", "test": "dig assay (nonfilamentous agar invasion) on YPD gradient plates", "type": "cell-based", "details": "YPD agar with fluconazole gradient, two days, washed with water (FIG. 12)", "from_the_text": "We have discovered that pathogenic fungi can display similar digging behavior, characterized by increased invasion into or adherence to a defined substrate. […] This behavior is similar to the reported digging behavior of S. cerevisiae. As is true for S. cerevisiae, non-hyphal agar invasion by any given C. albicans mutant strain correlates with the ability of that strain to form filaments under filament-inducing conditions (e.g., agar+serum). Thus, screening for compounds that block the digging phenotype in fungi will allow for identification of compounds that block filament formation and, as a result, pathogenesis. These compounds are considered useful as fungicides or fungistats. Similarly, screening for compounds that increase substrate invasion will allow for identification of compounds which may also increase production or yield of secondary metabolites.\nAn example of the dig assay is given below. To test whether a chemical compound would affect the nonfilamentous agar invasion behavior of nonmutant S. cerevisiae or C. albicans at concentrations much lower than the lowest growth inhibitory concentration, these fungi were spotted onto agar plates containing rich medium (YPD) and a gradient of the antifungal fluconazole. The plates were then incubated for two days at optimum growth temperatures and washed with water. […]"}},
  "data": [
    {"smiles": "OC(Cn1cncn1)(Cn1cncn1)c1ccc(F)cc1F", "note": "[fluconazole]", "values": [
      {"measurement": "inhibition of agar invasion relative to growth inhibition", "setting": "S. cerevisiae", "result": "inhibition of agar invasion at significantly lower concentrations of fluconazole than those necessary to inhibit growth"},
      {"measurement": "inhibition of agar invasion relative to growth inhibition", "setting": "C. albicans", "result": "inhibition of agar invasion at significantly lower concentrations of fluconazole than those necessary to inhibit growth"}
    ]}
  ]
}
